Source: patent publication US11179367B2, “Pharmaceutical compositions for treating cystic fibrosis” (Vertex Pharmaceuticals Incorporated, priority 2018, dated 2021)

Assays:
[1] = biological target: T1, F508del CFTR in NIH3T3 cells (Homo sapiens, UniProt P13569, DEL508-508); test: Membrane potential optical assay (correction assay) for F508del-CFTR modulators; format: cell-based; settings: NIH3T3 cells expressing F508del
T1 construct: expressed in transfected cells
Excerpt: Membrane Potential Optical Methods for Assaying Properties of F508del-CFTR Modulators
An optical assay was employed to measure changes in membrane potential to determine the CFTR modulator properties of compounds. The assay utilized fluorescent voltage sensing dyes to measure changes in membrane potential using a fluorescent plate reader (e.g., FLIPR III, Molecular Devices, Inc.) as a readout for increase in functional F508del in NIH 3T3 cells. The driving force for the response was the creation of a chloride ion gradient in conjunction with channel activation and concurrent with compound treatment by a single liquid addition step after the cells had previously been loaded with a voltage sensing dye.
NIH3T3 mouse fibroblasts stably expressing F508del were used for optical measurements of membrane potential. The cells were maintained at 37° C. in 5% CO2 and 90% humidity in Dulbecco's modified Eagle's medium supplemented with 2 mM glutamine, 10% fetal bovine serum, 1×NEAA, β-ME, 1×pen/strep, and 25 mM HEPES in 175 cm^2 culture flasks. […] The cells were then activated and treated with Compound I. After 18-24 hours, fluorescence from the voltage sensing dye in the cells was measured to assess changes in the membrane potential as a read out for increase in functional F508del CFTR in the NIH3T3 cells.

[2] = biological target: T2, F508del-CFTR in human bronchial epithelial (HBE) cells (Homo sapiens, UniProt P13569, DEL508-508); test: Ussing chamber assay, chloride current in airway epithelial (HBE) cells expressing F508del; format: cell-based
T2 construct: endogenous in cells; host or cells: primary CF human bronchial epithelial (HBE) cells
Description: Ussing chamber experiments were performed on polarized airway epithelial cells expressing F508del to further characterize the F508del modulators identified in the optical assay above. Non-CF and CF airway epithelia were isolated from bronchial tissue, cultured using methods well known in the art, and plated onto Costar® Snapwell™ filters that were precoated with NIH3T3-conditioned media. After four days the apical media was removed and the cells were grown at an air liquid interface for >14 days prior to use. […] CF-HBE cells were isolated from patients homozygous for F508del (F508del/F508del-HBE) or heterozygous for F508del with a different disease causing mutation on the other allele.
HBE cells grown on Costar® Snapwell™ cell culture inserts were mounted in an Ussing chamber (Physiologic Instruments, Inc., San Diego, Calif.), and the transepithelial resistance and short-circuit current in the presence of a basolateral to apical Cl^− gradient (ISC) were measured using a voltage-clamp system (Department of Bioengineering, University of Iowa, IA). Briefly, HBE cells were examined under voltage-clamp recording conditions (Vhold=0 mV) at 37° C. […]
A basolateral to apical membrane Cl^− concentration gradient was set up as follows. […] Chloride current was measured to assess the increase in functional CFTR in the cell membrane.

[3] = Rat pharmacokinetics, single IV and oral dose; format: in vivo; settings: male Sprague Dawley rats
Description: Compound 1 was also administered to male Sprague Dawley rats at single nominal oral dose (PO) of 3 mg/kg as a solution in 5% NMP, 30% PEG400, 10% TPGS, 5% PVP-K30 at 5 mL/kg dose volume.
The study design, sample tracking, data run design and individual plasma sample concentrations were stored using Watson LIMS software, Version 7.4.2 (Thermo Scientific Inc, Waltham, Mass.). Plasma concentration-time profiles of Compound 1 in Sprague Dawley rats at scheduled (nominal) sampling times were analyzed by noncompartmental pharmacokinetic methods using PK function within Watson LIMS software, Version 7.4.2 (Thermo Scientific Inc, Waltham, Mass.). Key pharmacokinetic parameters such as “area under the curve” (AUC), from the time of drug administration, time zero, extrapolated to infinity, clearance (CL), and Percent of oral bioavailability (% F) were determined. The AUC values were calculated using the linear trapezoidal rule.
In Table 21 below, Compound I is shown to have advantageous rat oral exposure (AUC) and oral bioavailability.

[4] = biological target: CFTR (Homo sapiens, UniProt P13569); settings: disclosed in PCT Application No. PCT/US2017/065425; read-out: EC50 as CFTR modulator; cited from earlier work
[5] = biological target: F508del-CFTR protein (Homo sapiens, UniProt P13569, DEL508-508); test: CFTR processing and trafficking to the cell surface (Example 15); format: cell-based
[6] = Bioavailability of crystalline Form A of Compound I; format: in vivo
[7] = Solid form assessment of Compound I (thermodynamic stability); format: physicochemical; settings: among solid forms of Compound I
Excerpt: In some embodiments, Compound I is Form A. In some embodiments, crystalline Form A is characterized by an X-ray powder diffractogram having a signal at least one two-theta value chosen from 6.6±0.2, 7.6±0.2, 9.6±0.2, 12.4±0.2, 13.1±0.2, 15.2±0.2, 16.4±0.2, 18.2±0.2, and 18.6±0.2. In some embodiments, crystalline Form A is characterized by an X-ray powder diffractogram having a signal at at least three two-theta values chosen from 6.6±0.2, 7.6±0.2, 9.6±0.2, 12.4±0.2, 13.1±0.2, 15.2±0.2, 16.4±0.2, 18.2±0.2, and 18.6±0.2. In some embodiments, crystalline Form A is characterized by an X-ray powder diffractograph having a signal at at least three two-theta values chosen from 6.6±0.2, 9.6±0.2, 13.1±0.2, 15.2±0.2, 18.2±0.2, and 18.6±0.2. In some embodiments, crystalline Form A is characterized by an X-ray powder diffractograph having a signal at three two-theta values of 6.6±0.2, 13.1±0.2, 18.2±0.2. In some embodiments, crystalline Form A is characterized by an X-ray powder diffractograph having a signal at six two-theta values of 6.6±0.2, 9.6±0.2, 13.1±0.2, 15.2±0.2, 18.2±0.2, and 18.6±0.2. In some embodiments, Crystalline Form A is characterized by an X-ray powder diffractogram substantially similar to that in FIG. 4A. In some embodiments, Crystalline Form A is characterized by an X-ray powder diffractogram substantially similar to that in FIG. 4B.

T2 sequence (P13569 with tags, fused parts or gaps DEL508-508): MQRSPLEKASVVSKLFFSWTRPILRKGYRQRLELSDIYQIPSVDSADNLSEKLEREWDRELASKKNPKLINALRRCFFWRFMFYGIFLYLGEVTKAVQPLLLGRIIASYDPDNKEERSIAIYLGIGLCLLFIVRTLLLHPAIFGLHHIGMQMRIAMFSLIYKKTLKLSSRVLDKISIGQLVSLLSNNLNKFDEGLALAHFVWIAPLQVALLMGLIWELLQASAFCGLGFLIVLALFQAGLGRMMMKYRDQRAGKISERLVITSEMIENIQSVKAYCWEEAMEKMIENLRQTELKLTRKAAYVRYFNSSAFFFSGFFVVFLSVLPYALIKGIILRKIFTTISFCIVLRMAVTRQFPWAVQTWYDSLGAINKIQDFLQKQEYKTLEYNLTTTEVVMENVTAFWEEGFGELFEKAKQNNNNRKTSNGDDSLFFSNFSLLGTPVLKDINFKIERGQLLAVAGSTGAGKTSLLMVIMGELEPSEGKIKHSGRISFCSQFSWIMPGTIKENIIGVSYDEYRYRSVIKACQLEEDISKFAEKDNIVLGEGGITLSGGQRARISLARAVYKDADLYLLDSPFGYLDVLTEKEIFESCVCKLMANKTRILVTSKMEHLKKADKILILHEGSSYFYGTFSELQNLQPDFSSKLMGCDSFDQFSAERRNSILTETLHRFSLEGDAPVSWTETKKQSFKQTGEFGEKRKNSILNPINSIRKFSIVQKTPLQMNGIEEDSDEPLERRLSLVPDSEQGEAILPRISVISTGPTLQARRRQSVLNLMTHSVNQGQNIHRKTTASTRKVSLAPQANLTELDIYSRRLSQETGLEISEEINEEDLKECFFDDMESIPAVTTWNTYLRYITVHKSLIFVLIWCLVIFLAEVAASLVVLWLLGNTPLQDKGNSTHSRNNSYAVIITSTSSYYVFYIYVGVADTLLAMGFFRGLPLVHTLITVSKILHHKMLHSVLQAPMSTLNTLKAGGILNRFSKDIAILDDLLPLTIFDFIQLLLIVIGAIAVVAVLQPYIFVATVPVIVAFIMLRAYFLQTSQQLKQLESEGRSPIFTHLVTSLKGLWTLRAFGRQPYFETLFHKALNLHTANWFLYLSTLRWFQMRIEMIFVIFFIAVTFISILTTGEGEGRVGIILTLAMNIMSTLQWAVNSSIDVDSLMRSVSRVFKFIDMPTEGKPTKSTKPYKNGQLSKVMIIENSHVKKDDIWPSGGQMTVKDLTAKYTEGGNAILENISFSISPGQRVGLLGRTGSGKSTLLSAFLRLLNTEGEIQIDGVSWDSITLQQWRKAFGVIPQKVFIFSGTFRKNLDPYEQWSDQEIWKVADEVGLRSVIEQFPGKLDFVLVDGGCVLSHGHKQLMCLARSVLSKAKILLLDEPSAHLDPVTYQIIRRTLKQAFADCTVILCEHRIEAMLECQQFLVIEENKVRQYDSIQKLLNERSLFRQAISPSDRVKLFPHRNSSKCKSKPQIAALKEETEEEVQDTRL
T1 sequence (P13569 with tags, fused parts or gaps DEL508-508): as above
F508del-CFTR protein, sequence (P13569 with tags, fused parts or gaps DEL508-508): as above

Structure (SMILES)	EC50 ([1]; 18-24 hours treatment) [nM]	Emax ([1]; relative to Compound II, read-out: % Efficacy relative to Compound II) [%]	EC50 [2] [nM]	HBE Max Eff (%) ([2]; % Efficacy)	rat oral exposure (AUC) ([3]; PO 3 mg/kg)	oral bioavailability ([3]; PO 3 mg/kg vs IV 3.0 mg/kg)	Rat PO AUC/dose ([3]; single nominal oral dose 3 mg/kg, dose-normalised) [µg·h/mL/mg/kg]	bioavailability ([3]; rat, plasma, oral bioavailability, PO 3 mg/kg vs IV 3.0 mg/kg, read-out: Rat % F) [%]	clearance ([3]; rat, plasma, single nominal IV dose 3.0 mg/kg, read-out: Rat iv CL) [mL/min/kg]	AUC ([3]; rat, plasma, single nominal oral dose 3 mg/kg, AUC extrapolated to infinity) [ng·h/mL]	EC50 [4] [nM]	CFTR corrector activity (processing and trafficking of F508del-CFTR, enhanced chloride transport) [5]	bioavailability [6]	thermodynamic stability of solid form [7]
Cc1nn(C)cc1S(=O)(=O)NC(=O)c1ccc(-n2ccc(OCC(C)(C)C(F)(F)F)n2)nc1N1C[C@@H](C)CC1(C)C [Compound I, N-(1,3-dimethylpyrazol-4-yl)sulfonyl-6-[3-(3,3,3-trifluoro-2,2-dimethyl-propoxy)pyrazol-1-yl]-2-[(4 S)-2,2,4-trimethylpyrrolidin-1-yl]pyridine-3-carboxamide]	< 3000	≥ 100	< 2000	+++ (“+++” means >100%)	advantageous	advantageous	9.4 ± 0.7	84	1.6 ± 0.4	23500 ± 1700	70	potent, efficacious, and selective	–	–
Cc1nn(C)cc1S(=O)(=O)NC(=O)c1ccc(-n2ccc(OCC(C)(C)C(F)(F)F)n2)nc1N1C[C@@H](C)CC1(C)C [Crystalline Form A, N-(1,3-dimethylpyrazol-4-yl)sulfonyl-6-[3-(3,3,3-trifluoro-2,2-dimethyl-propoxy)pyrazol-1-yl]-2-[(4 S)-2,2,4-trimethylpyrrolidin-1-yl]pyridine-3-carboxamide]	–	–	–	–	–	–	–	–	–	–	–	–	good	most thermodynamically stable form
